Where two headings read alike, the source gives them in different places. Each block holds one compound with its values, some of them ahead of it.
How the values were obtained:
[1] = system: human breast cancer cells MDA-MB-231; assay: Scratching assay, migration of MDA-MB-231 (Example 14); format: cell-based; conditions: 20 μmol/L, 0-24 h
Protocol: The inhibiting ability of 2-(4′-methyl-3′-nitrobenzoylamino)-3-indolylpropionic acid (TCI05), 2-(4′-methyl-3′-nitrobenzoylamino)-3-(4-hydroxy-phenyl) propionic acid (TCI06), 2-(4′-methyl-3′-nitrobenzenemethoxycarbonyl)-3-phenylpropionic acid (TCI07), 2-(4′-methyl-3′-nitrobenzenemethoxycarbonyl)-3-indolylpropionic acid (TCI08) for the migration of human breast cancer cells MDA-MB-231 was tested by scratching assay.
The MDA-MB-231 cells in logarithmic growth phase were seeded in the 6-well plate at a density of 1×10^6/3 ml, and 12 h later, TCI05, TCI06, TCI07, TCI08 (formulation was the same as TCI04) was added, 150 μl per well, with the final concentration of 20 μmol/L. The negative control was 150 μL sterilized water with 2% DMSO. 48 h later, 200 ul tips were used to scratch, and after washing 4 times with PBS, 3 ml medium without fetal bovine serum was added per well. Under the inverted microscope, the distance of cell migration was recorded every 3 h, and photos were taken at 0 h and 24 h.

[2] = system: human breast cancer cell MDA-MB-231; assay: Scratching assay, migration of MDA-MB-231 (Example 16); format: cell-based; conditions: for average (scratch assay distance): control 13.1667
Protocol: The inhibiting ability of 4-hydroxy-3-nitrobenzoic acid and 4-amino-3nitrobenzoic acid for the migration of human breast cancer cell MDA-MB-231 was tested by scratching assay.
Three lines were marked on the underside of 6-well plate, MDA-MB-231 breast cancer cells in logarithmic growth phase were digested with 0.7 mL 0.08% trypsin for 1 min, and the digestion was stopped with complete culture medium. After centrifugation at 1000 r/min for 3 min, the supernatant was discarded, then 3 mL complete culture medium was added. After pipetting to make suspension of single cell, the cells in the cell suspension was counted, and the concentration of the cells was adjusted to a density of 5×10^5 cells/well to plate the 6 wells plate, and 6 groups of drugs containing complete culture medium (DMEM+10% FBS+1% Penicillin-Streptomycin+drug) were added. After culturing in a incubator for 12 h until the cells were attached, the culture medium was removed, 20 μL tips were used to scratch vertically to the three transverse lines on the underside to obtain 6 distances for counting, and after washing with phosphate buffered saline (PBS) three times, 6 groups of drugs containing culture medium without FBS (DMEM+drug) were added respectively, and the width of the scratches were observed and recorded at 0 h, 3 h, 6 h, 9 h, 12 h and 24 h under inverted microscope, with 6 distances being recorded per well, wherein, photos were taken with inverted microscope at 0 h and 24 h for recording.

MDA-MB-231 cells = assay: MTT assay, synergistic effect with Paclitaxel (Example 12); format: cell-based, human; conditions: Homo sapiens
Protocol: Synergistic effects of (S)2-(4′-methyl-3′-nitrobenzoylamino)-3-phenylpropionic acid and Paclitaxel was tested by MTT assay.
1) The MDA-MB-231 cells in logarithmic growth phase were seeded in the 96-well plate at a density of 4×10^3/0.2 ml. After culturing for 12 h, 10 μl Paclitaxel solution was added, with the final concentration of 0, 0.001, 0.01, 0.1, 1, 10, 50, 100, 200 μM, then 10 μL (S)2-(4′-methyl-3′-nitrobenzoylamino)-3-phenylpropionic acid PBS solution was add to half of the wells for each group with the final concentration of 20 μM, followed by continuous culturing for 24 or 48 h.
2) 5 mg/mL MTT solution was prepared with sterilized PBS, filtered with 0.22 μm film, and diluted with medium to 1 mg/mL. After discarding the medium in the 96-well plate, 100 μL 1 mg/mL MTT working solution was added, followed by continuous culturing for 5 h.
3) MTT working solution was discarded, and 150 μL DMSO was added per well (note: to away from light). The plate was shaken on a horizontal shaker at 170 rpm for 10 min, and then the absorbance at 490 nm was detected by microplate reader.

4T1-luciferase cells = assay: In situ model of breast cancer in nude mouse, lung metastasis by in vivo imaging (Example 7); parameters: species or system nude mice; conditions: 50 mg/kg tail vein, twice a day, 21 days; P<0.01
Protocol: 4) An in situ breast cancer model is constructed by in situ inoculating nude mice with 4T1 cells which are stably transfected with Luciferase, and the number of metastatic tumors on the lung is detected by in vivo imaging system. Such a model mimics the occurrence and metastasis of breast cancer.
The ability of (S)2-(4′-methyl-3′-nitrobenzoylamino)-3-phenylpropionic acid for inhibiting tumor metastasis in vivo was tested by in situ model of breast cancer in nude mouse.
1) Mice grouping: Nude female mice of SPF grade, 5 weeks old, 18˜22 g, 8 mice for each group;
2) The mother liquid of (S)2-(4′-methyl-3′-nitrobenzoylamino)-3-phenylpropionic acid (TCI04) for the dosage form administrated by intravenous injection was diluted to 2 mg/mL, 0.1 mg/mL by adding sterilized water. The dosage for administration in mice was as follows, high dosage of 20 mg/kg; low dosage of 1 mg/kg. […]
3) 4T1-luciferase cells in logarithmic growth phase were digested with 0.05% typsine for 1 min, after centrifugation at 1000 rpm for 5 min, the supernatant was discarded and the cells were resuspended and counted. […]
5) After the completion of the administration, the mice were detected by in vivo imaging system for the condition of tumor metastasis and immediately sacrificed; the lungs alone were detected by the in vivo imaging system for the light intensity to determine the number of tumor metastasis.

Compound: 2-(4′-methyl-3′-nitrobenzoylamino)-3-indolyl propionic acid [TCI05]
- inhibition of migration ability (coalescence speed of cell scratch vs negative control) [1]: obviously inhibit

Compound: Nc1ccc(C(=O)O)cc1[N+](=O)[O-] [4-amino-3-nitrobenzoic acid]
- inhibition of migration ability (coalescence speed of cell scratch vs negative control) [2]: obviously inhibit
- average (scratch assay distance) [2]: 8.1667 10^−2 mm

Compound: O=C(O)c1ccc(O)c([N+](=O)[O-])c1 [4-hydroxy-3-nitrobenzoic acid]
- inhibition of migration ability (coalescence speed of cell scratch vs negative control) [2]: obviously inhibit
- average (scratch assay distance) [2]: 8 10^−2 mm

- IC50 (MDA-MB-231 cells; MDA-MB-231, 24 h, Paclitaxel + 20 μM (S)2-(4′-methyl-3′-nitrobenzoylamino)-3-phenylpropionic acid, read-out: IC50 after 24 h): 395 nM
- IC50 (MDA-MB-231 cells; MDA-MB-231, 24 h, Paclitaxel alone, read-out: IC50 after 24 h): 3970 nM
- IC50 (MDA-MB-231 cells; MDA-MB-231, 48 h, Paclitaxel + 20 μM (S)2-(4′-methyl-3′-nitrobenzoylamino)-3-phenylpropionic acid, read-out: IC50 after 48 h): 46 nM
- IC50 (MDA-MB-231 cells; MDA-MB-231, 48 h, Paclitaxel alone, read-out: IC50 after 48 h): 512 nM
Compound: CC(=O)O[C@H]1C(=O)[C@@]2(C)[C@H]([C@H](OC(=O)c3ccccc3)[C@]3(O)C[C@H](OC(=O)[C@H](O)[C@@H](NC(=O)c4ccccc4)c4ccccc4)C(C)=C1C3(C)C)[C@]1(OC(C)=O)CO[C@@H]1C[C@@H]2O [Paclitaxel]

Compound: Cc1ccc(C(=O)O)cc1[N+](=O)[O-] [TCI01, 4-methyl-3-nitrobenzoic acid, reference compound]
- light intensity of the whole lung vs negative control (4T1-luciferase cells): significantly weaker than the negative control

Compound: Cc1ccc(C(=O)NC(Cc2ccc(O)cc2)C(=O)O)cc1[N+](=O)[O-] (stereo not shown) [TCI06, 2-(4′-methyl-3′-nitrobenzoylamino)-3-(4-hydroxy-phenyl)propionic acid]
- inhibition of migration ability (coalescence speed of cell scratch vs negative control) [1]: obviously inhibit

Compound: Cc1ccc(COC(=O)C(Cc2ccccc2)C(=O)O)cc1[N+](=O)[O-] (stereo not shown) [TCI07, 2-(4′-methyl-3′-nitrobenzenemethoxycarbonyl)-3-phenylpropionic acid]
- inhibition of migration ability (coalescence speed of cell scratch vs negative control) [1]: obviously inhibit

Compound: Cc1ccc(COC(=O)C(Cc2c[nH]c3ccccc23)C(=O)O)cc1[N+](=O)[O-] (stereo not shown) [TCI08, 2-(4′-methyl-3′-nitrobenzenemethoxycarbonyl)-3-indolylpropionic acid]
- inhibition of migration ability (coalescence speed of cell scratch vs negative control) [1]: obviously inhibit
